Experimental findings from patent publication US10925874B2, “Substituted pyrazolopyrimidines as glucocerebrosidase activators” (The United States of America, as Represented by the …, priority 2010, dated 2021) are described below.

Where “and” joins values, the source holds several entries; their conditions need not be identical. Equal values may be shown once.

This assay concerns the target T1, N370S glucocerebrosidase from human spleen homogenate (Homo sapiens, UniProt P04062, N409S).
T1 construct: N370S glucocerebrosidase from human spleen homogenate as the enzyme preparation; from tissue; host or cells: human spleen homogenate
T1 sequence (P04062 40-536 N409S): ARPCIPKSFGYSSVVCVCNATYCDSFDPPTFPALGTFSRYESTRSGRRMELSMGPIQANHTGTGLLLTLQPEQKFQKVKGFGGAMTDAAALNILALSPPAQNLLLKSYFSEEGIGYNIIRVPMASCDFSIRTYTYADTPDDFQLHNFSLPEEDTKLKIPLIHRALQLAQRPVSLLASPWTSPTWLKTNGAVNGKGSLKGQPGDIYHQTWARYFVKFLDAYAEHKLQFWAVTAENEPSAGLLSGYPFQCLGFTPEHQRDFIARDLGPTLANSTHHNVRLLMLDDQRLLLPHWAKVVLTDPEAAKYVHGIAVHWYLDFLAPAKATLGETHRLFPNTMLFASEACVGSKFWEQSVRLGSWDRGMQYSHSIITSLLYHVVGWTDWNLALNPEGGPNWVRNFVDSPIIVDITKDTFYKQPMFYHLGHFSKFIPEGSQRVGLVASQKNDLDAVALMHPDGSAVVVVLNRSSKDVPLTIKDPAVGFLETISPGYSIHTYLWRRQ
Nature of the assay: qHTS fluorogenic enzyme assay for activators of N370S glucocerebrosidase (4-methylumbelliferyl-beta-D-glucopyranoside substrate). The format is biochemical. The settings on record: pH 5.0, 37° C. 40 min. The source says: qHTS Assay for Inhibitors and Activators of N370S glucocerebrosidase as a Potential Chaperone Treatment of Gaucher Disease: Primary Screen Confirmation
This is a fluorogenic enzyme assay with 4-methylumbelliferyl-beta-D-glucopyranoside as the substrate and N370S glucocerebrosidase from human spleen homogenate as the enzyme preparation. Upon the hydrolysis of this fluorogenic substrate, the resulting product, […] which can be detected by a standard fluorescence plate reader. Data were normalized to the controls for basal activity (without enzyme) and 100% activity (with enzyme). The AC50 values were determined from concentration-response data modeled with the standard Hill equation.
Human spleen homogenate is prepared as follows by homogenizing spleen with assay buffer containing 50 mM citric acid (titrated with potassium phosphate to pH 5.0), 100 mM potassium chloride, 10 mM sodium chloride, 1 mM magnesium chloride, 0.01% Tween-20. The protein concentration of the human spleen homogenate is approximated 1.35 ug/ul.
The assay is performed in 1536 well plates according to the following protocol. (1) 2 ul spleen homogenate ([…] final) is added to each well. (2) 23 nL test compound in DMSO solution is added to each well. The final concentration of compound in the test well is 0.5 nM to 58 uM. (3) 2 ul of substrate (1 mM final) are added to each well. (4) Incubate assay plates at 37° C. for 40 min. (5) Add 2 ul stop solution (1M NaOH and 1M Glycine mixture, pH 10) to each well. (6) Detect the assay plate in a ViewLux plate reader (PerkinElmer) using 365 nm excitation with emission at 440 nm.
With `Cc1cc(C)n2ncc(C(=O)Nc3cc(Cl)cc(Cl)c3)c2n1` [NCGC00229716-01, N-(3,5-dichlorophenyl)-5,7-dimethylpyrazolo[1,5-a]pyrimidine-3-carboxamide], the activity was half-maximal at 25.9 µM (AC50).
In the case of `O=C(Nc1cccc(Nc2ccccc2)c1)c1cnn2c1NC(=C1CC1)C=C2C(F)F` [NCGC00182185-01, 5-cyclopropylidene-7-(difluoromethyl)-N-(3-(phenylamino)phenyl)-4,5-dihydropyrazolo[1,5-a]pyrimidine-3-carboxamide], the AC50 (in general, the concentration at which the activity in the assay is half-maximal) came to 12.6 µM.
The figure for `Cc1cc(C)n2ncc(C(=O)NCc3cccc(Cl)c3)c2n1` [NCGC00187965-01, N-(3-chlorobenzyl)-5,7-dimethylpyrazolo[1,5-a]pyrimidine-3-carboxamide] is 18.3 µM; for `O=C(NC1CCCc2ccccc21)c1cnn2c1NC(=C1CC1)C=C2C(F)F` (stereo not drawn) [NCGC00182176-01, 5-cyclopropylidene-7-(difluoromethyl)-N-(1,2,3,4-tetrahydronaphthalen-1-yl)-4,5-dihydropyrazolo[1,5-a]pyrimidine-3-carboxamide] it is 14.3 µM; for `C=C1C=C(C(F)F)n2ncc(C(=O)N3CCN(c4ccccn4)CC3)c2N1` [NCGC00182144-01, (7-(difluoromethyl)-5-methylene-4,5-dihydropyrazolo[1,5-a]pyrimidin-3-yl)(4-(pyridin-2-yl)piperazin-1-yl)methanone] it is 35.5 µM.
With `O=C(Nc1cnn(Cc2ccc(F)cc2)c1)c1cnn2c(C(F)F)cc(-c3ccccc3)nc12` [MLS000662187-01, 7-(difluoromethyl)-N-(1-(4-fluorobenzyl)-1H-pyrazol-4-yl)-5-phenylpyrazolo[1,5-a]pyrimidine-3-carboxamide] the figure was 3.26 µM.
With `C=C1C=C(C(F)F)n2ncc(C(=O)NCc3ccccc3C(F)(F)F)c2N1` [NCGC00182161-01, 7-(difluoromethyl)-5-methylene-N-(2-(trifluoromethyl)benzyl)-4,5-dihdyropyrazolo[1,5-a]pyrimidine-3-carboxamide] the figure was 15.8 µM; with `C=C1C=C(C)n2ncc(C(=O)Nc3ccc(C)cn3)c2N1` [NCGC00182198-01, 7-methyl-5-methylene-N-(5-methylpyridin-2-yl)-4,5-dihydropyrazolo[1,5-a]pyrimidine-3-carboxamide], 15.8 µM; with `COC(=O)c1ccccc1NC(=O)c1cnn2c1NC(=C1CC1)C=C2C(F)F` [NCGC00182132-01, methyl 2-(5-cyclopropylidene-7-(difluoromethyl)-4,5-dihydropyrazolo[1,5-a]pyrimidine-3-carboxamido)benzoate], 15.8 µM.
`Cc1cc(C)n2ncc(C(=O)Nc3ccccc3C)c2n1` [NCGC00188770-01, 5,7-dimethyl-N-o-tolylpyrazolo[1,5-a]pyrimidine-3-carboxamide]: half-maximal activity (AC50) was put at 16.3 µM.
Turning to `O=C(Nc1ccccc1Sc1ccccc1)c1cnn2c1NC(=C1CC1)C=C2C(F)F` [NCGC00182186-01, 5-cyclopropylidene-7-(difluoromethyl)-N-(2-(phenylthio)phenyl)-4,5-dihydropyrazolo[1,5-a]pyrimidine-3-carboxamide], the AC50 is 13 µM and 7.08 µM.
The figure for `C=C1C=C(C(F)F)n2ncc(C(=O)NCc3ccccc3OC)c2N1` [NCGC00182162-01, 7-(difluoromethyl)-N-(2-methoxybenzyl)-5-methylene-4,5-dihydropyrazolo[1,5-a]pyrimidine-3-carboxamide] is 14.1 µM.
With `Cc1cc(C)n2ncc(C(=O)Nc3ccc(Cl)c(Cl)c3)c2n1` [MLS000765493-01, N-(3,4-dichlorophenyl)-5,7-dimethylpyrazolo[1,5-a]pyrimidine-3-carboxamide] the figure was 7.08 µM.
The figure for `O=C(NC1CCCC1)c1cnn2c1NC(=C1CC1)C=C2C(F)F` [NCGC00182170-01, N-cyclopentyl-5-cyclopropylidene-7-(difluoromethyl)-4,5-dihydropyrazolo[1,5-a]pyrimidine-3-carboxamide] is 12.6 µM.
Compound `Cc1cc(C)n2ncc(C(=O)Nc3ccc4c(c3)CCC4)c2n1` [NCGC00187969-01, N-(2,3-dihydro-1H-inden-5-yl)-5,7-dimethylpyrazolo[1,5-a]pyrimidine-3-carboxamide] returned an AC50 of 2.59 µM.
The figure for `O=C(Nc1ccc(Br)cc1F)c1cnn2c1NC(=C1CC1)C=C2C(F)F` [NCGC00182179-01, N-(4-bromo-2-fluorophenyl)-5-cyclopropylidene-7-(difluoromethyl)-4,5-dihydropyrazolo[1,5-a]pyrimidine-3-carboxamide] is 2.51 µM; for `C=C1C=C(C(F)F)n2ncc(C(=O)NCCc3ccccc3Cl)c2N1` [NCGC00182151-01, N-(2-chlorophenethyl)-7-(difluoromethyl)-5-methylene-4,5-dihydropyrazolo[1,5-a]pyrimidine-3-carboxamide] it is 31.6 µM.
With `Cc1cc(C)n2ncc(C(=O)Nc3ccccc3Sc3ccccc3)c2n1` [NCGC00229712-01, 5,7-dimethyl-N-(2-(phenylthio)phenyl)pyrazolo[1,5-a]pyrimidine-3-carboxamide] the figure was 18.3 µM; with `Cc1cc(C)n2ncc(C(=O)NC3CCCCC3)c2n1` [NCGC00187971-01, N-cyclohexyl-5,7-dimethylpyrazolo[1,5-a]pyrimidine-3-carboxamide], 10.3 µM.
Turning to `O=C(Nc1cc(F)ccc1F)c1cnn2c1NC(=C1CC1)C=C2C(F)F` [NCGC00182172-01, 5-cyclopropylidene-7-(difluoromethyl)-N-(2,5-difluorophenyl)-4,5-dihydropyrazolo[1,5-a]pyrimidine-3-carboxamide], the AC50 stood at 3.16 µM.
With `Cc1cc(C)n2ncc(C(=O)Nc3ccc(Br)cc3)c2n1` [NCGC00188756-01, N-(4-bromophenyl)-5,7-dimethylpyrazolo[1,5-a]pyrimidine-3-carboxamide] the figure was 2.06 µM; with `C=C1C=C(C(F)F)n2ncc(C(=O)NCc3ccc(Cl)cc3Cl)c2N1` [NCGC00182146-01, N-(2,4-dichlorobenzyl)-7-(difluoromethyl)-5-methylene-4,5-dihydropyrazolo[1,5-a]pyrimidine-3-carboxamide], 10 µM.
With `COc1ccc(NC(=O)c2cnn3c(C)cc(C)nc23)c(OC)c1` [NCGC00188781-01, N-(2,4-dimethoxyphenyl)-5,7-dimethylpyrazolo[1,5-a]pyrimidine-3-carboxamide] the figure was 25.9 µM; with `Cc1cc(C)n2ncc(C(=O)Nc3ccc(C)c(C)c3)c2n1` [NCGC00188783-01, N-(3,4-dimethylphenyl)-5,7-dimethylpyrazolo[1,5-a]pyrimidine-3-carboxamide], 1.46 µM.
With `C=C1C=C(C(F)F)n2ncc(C(=O)Nc3ccc(C(C)CC)cc3)c2N1` (stereo not drawn) [NCGC00182141-01, N-(4-sec-butylphenyl)-7-(difluoromethyl)-5-methylene-4,5-dihydropyrazolo[1,5-a]pyrimidine-3-carboxamide] the figure was 2.51 µM.
Compound `O=C(Nc1ccc2c(c1)CCC2)c1cnn2c1NC(=C1CC1)C=C2C(F)F` [NCGC00182174-01, 5-cyclopropylidene-7-(difluoromethyl)-N-(2,3-dihydro-1H-inden-5-yl)-4,5-dihydropyrazolo[1,5-a]pyrimidine-3-carboxamide] came in with an AC50 of 3.98 µM.
The figure for `Cc1cc(C)n2ncc(C(=O)Nc3ccc(C)c(Cl)c3)c2n1` [NCGC00188782-01, N-(3-chloro-4-methylphenyl)-5,7-dimethylpyrazolo[1,5-a]pyrimidine-3-carboxamide] is 1.83 µM.
